{"source": "patent US7074355B2", "about": "“Process for dry granulation by agitative balling for the preparation of chemically stable, dry-flow, low compact, dust free, soluble spherical granules of phosphoroamidothioate” (United Phosphorus Ltd., priority 2003, dated 2006)", "origin": "cited, not measured here", "tested_on": "insects", "conditions": "systemic and contact insecticide of moderate persistence", "data": [{"smiles": "COP(=O)(NC(C)=O)SC", "note": "(stereo not shown) [Acephate]", "values": [{"measurement": "residual activity lasting", "result": "10 to 15", "unit": "days"}]}]}
